The source of these data is BindingDB's records for doi:10.1021/jm00126a020 (Sankyo, 1989).

One test deals with T1, Thromboxane-A synthase (Homo sapiens, UniProt P24557).
T1 sequence (P24557 whole entry): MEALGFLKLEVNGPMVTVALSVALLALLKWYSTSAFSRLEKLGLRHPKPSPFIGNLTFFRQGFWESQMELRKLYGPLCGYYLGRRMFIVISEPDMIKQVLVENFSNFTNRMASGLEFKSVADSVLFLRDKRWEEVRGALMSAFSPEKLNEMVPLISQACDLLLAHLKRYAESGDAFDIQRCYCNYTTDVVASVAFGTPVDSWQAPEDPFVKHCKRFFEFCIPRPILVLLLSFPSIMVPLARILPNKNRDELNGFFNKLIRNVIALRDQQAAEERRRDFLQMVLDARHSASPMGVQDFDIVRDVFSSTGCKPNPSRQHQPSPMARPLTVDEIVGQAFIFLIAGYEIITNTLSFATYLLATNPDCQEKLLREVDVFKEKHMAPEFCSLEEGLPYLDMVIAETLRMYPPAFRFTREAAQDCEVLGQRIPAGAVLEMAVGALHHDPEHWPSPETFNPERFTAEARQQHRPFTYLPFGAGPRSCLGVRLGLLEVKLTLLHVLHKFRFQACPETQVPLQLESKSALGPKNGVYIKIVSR
In words: ChEBML_209951. From the text:
Inhibition of thromboxane A2 synthetase
`O=C(O)C1=Cc2cc(C(c3ccccc3)n3ccnc3)sc2CC1` (stereo not drawn): the IC50 (commonly the concentration at which inhibition is half-maximal) was determined as 114 nM.

`O=C(O)C1CCc2cc(CCn3ccnc3)sc2C1` (stereo not drawn) displayed a concentration for half-maximal inhibition (IC50) of 1850 nM.

On to `O=C(O)C1=Cc2cc(CCn3ccnc3)sc2CC1`, for which half-maximal inhibition (IC50) was put at 100 nM.

On to `O=C(O)C1CCc2sc(CCn3ccnc3)cc2C1` (stereo not drawn), for which the IC50 is 1020 nM.

`O=C(O)C1=Cc2sc(CCn3ccnc3)cc2CC1` showed an IC50 of over 10000 nM.

For the molecule `O=C(O)C1CCc2sc(Cn3ccnc3)cc2C1` (stereo not drawn), the IC50 came out at 86 nM.

Take `O=C(O)c1cc2c(s1)CCC(Cn1ccnc1)C2` (stereo not drawn): half-maximal inhibition (IC50) required 114 nM.

`O=C(O)c1cc2c(s1)CC(Cn1ccnc1)CC2` (stereo not drawn) came in with a half-maximal inhibitory concentration (IC50) of 2680 nM.

The molecule `O=C(O)C1=Cc2cc(Cn3ccnc3)sc2CC1` had a half-inhibitory concentration (IC50) of 93 nM.

`CC(C)(C)C(c1cc2c(s1)CCC(C(=O)O)=C2)n1ccnc1` (stereo not drawn): the IC50 is over 10000 nM.

In the case of `O=C(O)C1=Cc2cc(C(C3CCCCC3)n3ccnc3)sc2CC1` (stereo not drawn), the half-inhibitory concentration (IC50) is over 10000 nM.

The molecule `O=C(O)C1=Cc2sc(Cn3ccnc3)cc2CC1` [2-Imidazol-1-ylmethyl-4,5-dihydro-benzo[b]thiophene-6-carboxylic acid] returned a half-maximal inhibitory concentration (IC50) of 13 nM.

The next test concerns the target Thromboxane-A synthase (Oryctolagus cuniculus). Nature of the test: Inhibition of platelet microsomal thromboxane A2 synthetase in rabbits.
As for `O=C(O)C1=Cc2sc(Cn3ccnc3)cc2CC1` [2-Imidazol-1-ylmethyl-4,5-dihydro-benzo[b]thiophene-6-carboxylic acid], inhibition was half-maximal at 13 nM (IC50).
